Values quoted from earlier work as cited in US20070112050A1, “HMGCoA reductase inhibitor combinations and uses thereof” (pSivida Inc., priority 2005, published 2007).
Where two headings read alike, the source gives them in different places. Each block holds one compound with its values, some of them ahead of it.

Legend:
[1] = tested on: low density lipoprotein cholesterol (LDL); settings: ezetimibe administered alone
HMGCoA reductase (HMGR) = biological target: T1, HMGCoA reductase (HMGR) (Homo sapiens, UniProt P04035); settings: substrate of HMGCoA reductase; read-out: Michaelis constant, Km
T1 sequence (P04035 1-888): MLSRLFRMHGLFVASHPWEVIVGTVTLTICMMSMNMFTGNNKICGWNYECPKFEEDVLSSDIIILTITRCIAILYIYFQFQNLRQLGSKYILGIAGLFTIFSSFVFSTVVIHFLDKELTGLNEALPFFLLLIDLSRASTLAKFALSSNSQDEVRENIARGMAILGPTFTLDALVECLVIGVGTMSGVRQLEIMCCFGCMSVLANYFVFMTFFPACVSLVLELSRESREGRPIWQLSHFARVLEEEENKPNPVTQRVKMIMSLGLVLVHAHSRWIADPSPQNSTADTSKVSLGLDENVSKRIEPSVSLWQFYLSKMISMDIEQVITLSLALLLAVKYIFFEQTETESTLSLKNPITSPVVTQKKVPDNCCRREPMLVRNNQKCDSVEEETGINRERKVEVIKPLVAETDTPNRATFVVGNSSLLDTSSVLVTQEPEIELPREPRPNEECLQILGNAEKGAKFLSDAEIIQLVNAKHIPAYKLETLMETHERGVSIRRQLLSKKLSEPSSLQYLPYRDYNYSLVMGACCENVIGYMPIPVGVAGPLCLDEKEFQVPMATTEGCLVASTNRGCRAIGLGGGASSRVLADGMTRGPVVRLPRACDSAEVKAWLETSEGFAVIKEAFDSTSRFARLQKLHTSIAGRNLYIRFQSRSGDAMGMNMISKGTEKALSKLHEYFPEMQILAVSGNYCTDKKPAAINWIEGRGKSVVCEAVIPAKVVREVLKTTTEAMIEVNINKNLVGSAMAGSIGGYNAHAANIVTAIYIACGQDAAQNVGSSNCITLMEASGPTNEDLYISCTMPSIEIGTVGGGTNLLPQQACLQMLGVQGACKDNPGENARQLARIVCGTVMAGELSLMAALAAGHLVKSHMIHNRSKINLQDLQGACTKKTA

Half-life (human body): 5 h
Compound: CCCCc1nc(Cl)c(CO)n1Cc1ccc(-c2ccccc2-c2nn[nH]n2)cc1 [Losartan, losartan]

Half-life (human, in vivo): 10 h
Active metabolite (in vivo): Yes
Major route of inactivation (in vivo): Liver and renal
Compound: CCOc1nc2cccc(C(=O)O)c2n1Cc1ccc(-c2ccccc2-c2nnn[nH]2)cc1 [Candesartan, candesartan]

Compound: O=C1[C@H](CC[C@H](O)c2ccc(F)cc2)[C@@H](c2ccc(O)cc2)N1c1ccc(F)cc1 [ezetimibe]
reduction of LDL [1]: 17%

Km (HMGCoA reductase (HMGR)): 4 µM
Compound: CC(C)(COP(=O)(O)OP(=O)(O)OC[C@H]1O[C@@H](n2cnc3c(N)ncnc32)[C@H](O)[C@@H]1OP(=O)(O)O)[C@@H](O)C(=O)NCCC(=O)NCCSC(=O)C[C@@](C)(O)CC(=O)O [HMGCoA, (S)-3-hydroxy-3-methylglutaryl-CoA]

Active metabolite (human body): No
Half-life (human body): 13 h
Compound: CCCCC1=NC2(CCCC2)C(=O)N1Cc1ccc(-c2ccccc2-c2nnn[nH]2)cc1 [Irbesartan, irbesartan]

Half-life (human body): 6 h
Compound: CCCCC(=O)N(Cc1ccc(-c2ccccc2-c2nnn[nH]2)cc1)[C@H](C(=O)O)C(C)C [Valsartan, valsartan]
